From patent US7709514B2, “Therapeutic molecules and methods-1” (Cortical Pty Ltd, priority 2002, dated 2010)
Like-named read-outs stand apart in the source and are kept apart here.

Key:
[1] = tested on: IL-1-induced proliferation of human rheumatoid arthritis FLS; assay: inhibition of human rheumatoid arthritis synovial fibroblast proliferation; assay type: cell-based
Method: Fibroblast-like synoviocytes (FLS) were obtained from synovium of rheumatoid (RA) patients undergoing joint replacement surgery and prepared according to Lacey et al (26). FLS were isolated using enzyme digestion and cultured in RPMI/10% fetal calf serum (FCS) as previously described. A single cell suspension was obtained by digesting minced synovial tissue with 2.4 mg/ml Dispase (grade II, 5 U/mg) 1 mg/ml collagenase (type II) and DNase (type 1). FLS were propagated in 10 cm culture plates in RPMI supplemented with 10% FCS at 37° C. in a 5% CO2 humidified incubator. Cells beyond 3rd passage were more than 99% CD45−. Cells were used between passages 4 and 9. Cells from four individual human RA donor FLS used.
To determine the effect of compound 5 on FLS proliferation, DNA synthesis was measured by [^3H] thymidine incorporation. FLS were seeded overnight at 0.5×10^5 cells per well in 24 well tissue culture plates in RPMI/10% FCS. Cell growth was synchronised by culturing FLS in RPMI/0.1% bovine serum albumin for 24 h. […] FLS were detached using Trypsin-EDTA, harvested using a cell harvester, and the radioactivity incorporated into DNA determined using a Wallac 1409 liquid scintillation counter. Results were expressed as the percentage of control (untreated) cell proliferation, and the mean±SEM of four experiments calculated.

[2] = tested on: cutaneous delayed-type hypersensitivity reactions; assay: cutaneous delayed-type hypersensitivity (DTH) to mBSA; assay type: in vivo, mice; conditions: 15 mg/kg IP once per 24 hours; vs vehicle, p<0.05
Method: As noted above, cutaneous delayed-type hypersensitivity reactions (DTH) are an in vivo test of T cell activation. […] A compound which inhibits the cytokine of biological activity of MIF may be expected to inhibit the development of DTH reactions in vivo. DTH reactions were induced in mice developing antigen-induced arthritis (see below). C57BL6/J male mice, aged 7-10 weeks old, were immunized on day 0 with 200 μg methylated BSA (mBSA) emulsified in 200 μl of Freund's complete adjuvant (FCA) injected subcutaneously into the flank skin. Mice were treated with compound 5, administered by intraperitoneal injection, once per 24 hours at a dose of 15 mg/kg body weight. After seven days, mice received 100 μg mBSA and 100 μl FCA by intradermal injection at the base of the tail. After a further 14 days, arthritis was induced by intra-articular injection of 30 μg mBSA in 10 μl of sterile saline into the left knee, the right knee being injected with sterile saline alone. DTH reactions were induced as follows: these mice were challenged 24 h before the end of the experiment by intradermal injection of 50 μg mBSA in 20 μl saline into one hind footpad. […] Footpad swelling was quantified 24 h later using a micrometer. DTH was recorded as the difference in skin swelling between mBSA and saline-injected footpads, and expressed as change in footpad thickness (Δmm).

[3] = tested on: murine peritoneal macrophage cytokine production; assay: inhibition of peritoneal macrophage cytokine production (ELISA); assay type: cell-based, mice; conditions: Mus musculus
Method: C57BL6/J male mice were injected intraperitoneally with 2 ml of thioglycollate. Five (5) days later peritoneal macrophages were collected by lavaging the peritoneum of anaesthetized mice with 3 ml of cold Hanks buffered saline solution. Cells from several mice were pooled, washed and re-suspended in DMEM supplemented with 5% FCS. Cells were plated in 96 well plastic tissue culture plates at 1×10^5 cells/well. Cells were treated with compound or vehicle for 1 hour in a 5% CO2 incubator at 37° C. Cells were then treated with LPS (10-100 ng/ml) or recombinant human interferon-γ (10 units/ml) and incubated for 24 hours. After 24 hours, 50 μl of supernatant from each well was carefully removed and transferred to ELISA plates. The concentration of interleukin 1 (IL-1) or interleukin 6 (IL-6) was measured by ELISA. The concentration of compound at which LPS- or interferon-γ-induced cytokine release was suppressed by 50% compared to vehicle-only-treated cells (EC50) was calculated using Prism® software. Table 9 lists the EC50 for two compounds tested in this assay.

## CCCCCOC(=O)c1ccc2[nH]c(=O)[nH]c2c1 [Compound 5]
[1]; IL-1β 0.1 ng/ml + compound 5 50 μM, mean±SEM of four experiments, IL-1 + vehicle 156 ± 32
  FLS proliferation, percentage of control (untreated) cell proliferation: 18 ± 6 percentage of control
[1]; compound 5 50 μM
  IL-1-induced FLS proliferation: marked and statistically significant inhibition
[2]
  cutaneous DTH reactions (change in footpad thickness): statistically significant reduction
[3]; [LPS] 10 ng/mL, read-out: EC50, IL-1 release
  EC50: 0.075 µM
[3]; [LPS] 100 ng/mL, read-out: EC50, IL-6 release
  EC50: 17.7 µM
